# Test results published in US20130129832A1, “COGNITIVE IMPAIRMENT AMELIORANT” (TOHOKU UNIVERSITY, priority 2008, published 2013).
# How the values were obtained:
# [1] = system: ERK phosphorylation in PC12D cells; assay: ERK phosphorylation in PC12D cells by western blotting (p-ERK relative to total ERK); type: cell-based; details: 15 minutes treatment, 30 μM nobiletin alone, FIG. 2
# Procedure: Therefore, the effects of royal jelly and the effects of the combined used of royal jelly and nobiletin on ERK activity in PC12D cells, which are considered to be model cells of nerve cells, were examined by western blotting using as an indicator thereof the effects of water-soluble components of “Royal Jelly FD Powder” on ERK phosphorylation.
# PC12D cells (Aichi Prefectural County Research Institute) were sub-cultured using Dulbecco's Modified Eagle Medium (DMEM) comprising heat inactivated (56° C., 30 minutes) 5% horse serum (HS: Gibco), 10% fetal calf serum (FCS: CELLect), penicillin (50 units/mL) and streptomycin ([…]). […]
# PC12D cells were inoculated into a 35 mm dish at 1×10^6 cells/dish, and after culturing for 24 hours in a CO2 incubator, the cells were treated with drug. […] Moreover, after subjecting to ultrasonic treatment for 5 minutes in ice water, the lysate was centrifuged for 20 minutes at 14,000 rpm followed by recovery of the supernatant and quantification of the amount of protein. […] Bands were detected using the ECL method. […]
# PC12D cells were inoculated into a 3.5 cm dish at 1×10^6 cells/dish and cultured overnight followed by treating for 15 minutes with low-serum medium comprising various drugs, and lysing the cells with cell lysis solution to obtain a cell extract. The expression levels of p-ERK and total ERK in the cell extract were then analyzed. […]
# [2] = system: CRE-dependent transcription in cultured rat hippocampal neuronal cells; assay: CRE-dependent transcription reporter gene (luciferase) assay in cultured rat hippocampal neuronal cells; type: cell-based; details: 8 hours treatment with different concentrations, FIGS. 5 and 6
# Procedure: (§1) FIG. 5 indicates concentration-dependent effects of nobiletin on CRE-dependent transcription in cultured rat hippocampal neuronal cells. Cells were inoculated at a density of 8×10^4 cells/48 well plate followed by holding the plate for 10 to 14 days. […] Following transfection, the cells were treated for 8 hours with different concentrations of […]. Data is shown as the mean±S.E.M. (n=6). Asterisks (*) indicate a level of significance of p<0.05 relative to a control, while double asterisks (**) indicate a level of significance of p<0.001 relative to a control.
# as §1, with “FIG. 6 indicates concentration-dependent” for “FIG. 5 indicates concentration-dependent”, “effects of 4-demethylated nobiletin on” for “effects of nobiletin on”
# A pregnant SD rat (E18) was sacrificed by cervical dislocation under ether anesthesia. […]
# Results obtained from the reporter gene assay were evaluated using one-way ANOVA (Tukey). […]
SMILES,effect on ERK phosphorylation [1],effect on CRE-dependent transcription [2]
"COc1ccc(-c2cc(=O)c3c(OC)c(OC)c(OC)c(OC)c3o2)cc1OC [nobiletin, 5,6,7,8,3′,4′-hexamethoxyflavone]",only demonstrated weak promoting action of ERK phosphorylation when used alone,concentration-dependently promote CRE-dependent transcription
"COc1cc(-c2cc(=O)c3c(OC)c(OC)c(OC)c(OC)c3o2)ccc1O [4-demethylated nobiletin, 2-(4-hydroxy-3-methoxyphenyl)-5,6,7,8-tetramethoxychromen-4-one]",–,concentration-dependently promote CRE-dependent transcription in the same manner as nobiletin
